According to patent publication US10954461B2, “Methods for preventing microbial growth and microbiologically influenced corrosion in a biodegradable and/or renewable fuel, hydraulic fluid and/or lubricant” (TRIBORON INTERNATIONAL AB, priority 2016, dated 2021):

What was measured:
microbial growth = details: lowest tested concentration (1:2000, 44 ppm boric acid, 7.5 ppm boron); HVO and RME with lake water; initial results
Procedure: 20 samples were prepared, 10×50 g of each fuel type, HVO and RME respectively. For each fuel type, there were four boron concentrations and a reference. One of each concentration and fuel was placed in a heating chamber at 45° C. and in front of a window subjected to sunlight. Water was taken from a lake nearby and stored in the heat chamber for an amount of time to enhance microorganism content and activity. 15 g of lake water was added to each sample, and the contaminated samples stored one week in 45° C. and exposed to sunlight. A stable solution of inorganic boron in ethanol was added to each sample in different dilutions, corresponding to the theoretical concentrations in the samples shown in table 3: [table]

[1] = based on available in vitro data; SCCS opinion 2010; cited from earlier work

OB(O)O [boric acid]
effect on microbial growth in contaminated samples (microbial growth): marked effect | mutagenicity [1]: non-mutagenic
